± gives the expanded uncertainty stated by the source.
What was measured:
[1] = 303.15 K; 101.33 kPa; Liquid; Vibrating tube method
[2] = refractive index (Na D-line) (dimensionless); details: 303.15 K; 101.33 kPa; Liquid; Standard Abbe refractometry
[3] = excess molar enthalpy (molar enthalpy of mixing); xn = mol fraction of the nth substance listed; details: 300 K, 101 kPa, Liquid, Flow calorimetry

CCCCO [butan-1-ol]
Details	mass density [kg/m3]	refractive index
[1]	801.98 ± 0.15	–
[2]	–	1.3962 ± 0.0005

CCC(C)O (configuration not stated) [butan-2-ol]
Details	mass density [kg/m3]	refractive index
[1]	798.58 ± 0.24	–
[2]	–	1.394 ± 0.0005

OC1CCCCC1 [cyclohexanol]
Details	mass density [kg/m3]	refractive index
[1]	941.36 ± 0.23	–
[2]	–	1.4632 ± 0.0005

OC1CCCCC1 [cyclohexanol] + CC(C)O
[3]
Details	excess molar enthalpy [kcal/mol]
x1 = 0.0817	0.0162 ± 0.00043
x1 = 0.1653	0.0276 ± 0.000669
x1 = 0.2454	0.0356 ± 0.000837
x1 = 0.3436	0.0429 ± 0.00098
x1 = 0.5462	0.0466 ± 0.00105
x1 = 0.6326	0.0451 ± 0.00103
x1 = 0.7173	0.0405 ± 0.000932
x1 = 0.8036	0.0298 ± 0.000717
x1 = 0.9097	0.0172 ± 0.000454

OC1CCCCC1 [cyclohexanol] + CCC(C)O
[3]
Details	excess molar enthalpy [kcal/mol]
x1 = 0.0831	0.0112 ± 0.000335
x1 = 0.0874	0.0117 ± 0.000335
x1 = 0.1613	0.019 ± 0.000478
x1 = 0.1704	0.0201 ± 0.000502
x1 = 0.2787	0.0284 ± 0.000669
x1 = 0.3304	0.0304 ± 0.000717
x1 = 0.4131	0.0334 ± 0.000789
x1 = 0.5657	0.0359 ± 0.000837
x1 = 0.6512	0.0363 ± 0.000837
x1 = 0.7441	0.0325 ± 0.000765
x1 = 0.7557	0.0319 ± 0.000741
x1 = 0.8271	0.0247 ± 0.000598
x1 = 0.8352	0.0238 ± 0.000574
x1 = 0.9129	0.0128 ± 0.000359
x1 = 0.9201	0.0127 ± 0.000359

OC1CCCCC1 [cyclohexanol] + CCCCO
[3]
Details	excess molar enthalpy [kcal/mol]
x1 = 0.0976	0.00894 ± 0.000287
x1 = 0.1867	0.0143 ± 0.000382
x1 = 0.3025	0.0214 ± 0.000526
x1 = 0.3622	0.0241 ± 0.000598
x1 = 0.4484	0.0271 ± 0.000645
x1 = 0.5609	0.0279 ± 0.000669
x1 = 0.6402	0.0279 ± 0.000669
x1 = 0.7119	0.0261 ± 0.000621
x1 = 0.7842	0.022 ± 0.00055
x1 = 0.785	0.0223 ± 0.00055
x1 = 0.8549	0.0168 ± 0.000454
x1 = 0.8747	0.0141 ± 0.000382
x1 = 0.9059	0.011 ± 0.000335

OC1CCCCC1 [cyclohexanol] + CCCO
[3]
Details	excess molar enthalpy [kcal/mol]
x1 = 0.0808	0.00583 ± 0.000239
x1 = 0.1568	0.0106 ± 0.000335
x1 = 0.2326	0.0151 ± 0.000406
x1 = 0.3085	0.0175 ± 0.000454
x1 = 0.3888	0.0201 ± 0.000502
x1 = 0.4614	0.0226 ± 0.00055
x1 = 0.547	0.0236 ± 0.000574
x1 = 0.6359	0.023 ± 0.000574
x1 = 0.7223	0.0205 ± 0.000526
x1 = 0.8063	0.0166 ± 0.00043
x1 = 0.901	0.00978 ± 0.000311

OC1CCCCC1 [cyclohexanol] + CCO
[3]
Details	excess molar enthalpy [kcal/mol]
x1 = 0.0883	0.0164 ± 0.00043
x1 = 0.1688	0.0283 ± 0.000669
x1 = 0.2501	0.0351 ± 0.000813
x1 = 0.337	0.0397 ± 0.000908
x1 = 0.456	0.0422 ± 0.000956
x1 = 0.5436	0.0424 ± 0.00098
x1 = 0.6255	0.0391 ± 0.000908
x1 = 0.7119	0.0348 ± 0.000813
x1 = 0.8026	0.0279 ± 0.000669
x1 = 0.9062	0.016 ± 0.00043

OC1CCCCC1 [cyclohexanol] + CO
[3]
Details	excess molar enthalpy [kcal/mol]
x1 = 0.0742	0.0249 ± 0.000598
x1 = 0.1422	0.0368 ± 0.00086
x1 = 0.2234	0.0468 ± 0.00105
x1 = 0.2948	0.051 ± 0.00115
x1 = 0.4871	0.0514 ± 0.00115
x1 = 0.5587	0.0463 ± 0.00105
x1 = 0.6333	0.0406 ± 0.000932
x1 = 0.7266	0.0318 ± 0.000741
x1 = 0.8274	0.0196 ± 0.000502
x1 = 0.9162	0.0101 ± 0.000311

CCO [ethanol]
Details	mass density [kg/m3]	refractive index
[1]	780.82 ± 0.15	–
[2]	–	1.358 ± 0.0005

CO [methanol]
Details	mass density [kg/m3]	refractive index
[1]	781.87 ± 0.15	–
[2]	–	1.3255 ± 0.0005

CCCO [propan-1-ol]
Details	mass density [kg/m3]	refractive index
[1]	795.53 ± 0.15	–
[2]	–	1.3821 ± 0.0005

CC(C)O [propan-2-ol]
Details	mass density [kg/m3]	refractive index
[1]	776.71 ± 0.17	–
[2]	–	1.3741 ± 0.0005

From the NIST ThermoML archive (doi:10.1016/j.jct.2012.02.037)
